From US11059818B2, “Triazolopyridine inhibitors of myeloperoxidase” (BRISTOL-MYERS SQUIBB COMPANY, priority 2016, dated 2021) come the findings set out here.

Test [1] concerns the target T1, myeloperoxidase (Homo sapiens (Human), UniProt P05164). Nature of the test: MPO Peroxidation Assay (Amplex Red Assay). It counts as biochemical. The note with it: potency range class. On the procedure:
MPO Peroxidation Assay (Amplex Red Assay)
MPO peroxidation activity was measured in 100 mM KPi (pH 7.4) by utilizing the non-fluorescent reagent Amplex Red (Invitrogen Cat. #A12222) which can be oxidized to the highly fluorescent resorufin. Amplex Red is oxidized by the peroxidase action of MPO to resorufin. Reactions were carried out in 50 μL total volume by adding a 25 μL mixture of 200 pM myeloperoxidase and 40 nM H2O2(Sigma #349887) to 100 nL inhibitor in 100% DMSO in a 384 well Perkin Elmer Optiplate. Enzyme and compound were preincubated for ten minutes at rt.
After the ten minute preincubation, 25 μL of an Amplex Red mixture containing 200 μM Amplex Red and 10 mM H2O2 was added to the plate. Kinetic determinations were carried out immediately on a Perkin Elmer Envision (15 minute kinetic read, Ex: 535 nm, Em: 590 nm).
IC50 values were calculated by determining the slope of the linear portion of the kinetic trace (180-540 secs), and using that calculated slope to determine % inhibition occurring at each concentration of inhibitor using the following equation:
(§1) [formula] where A=minimal Y value (activity level of inhibited sample), B=maximal Y value (activity level of uninhibited sample), C=Log IC50, D=Hill Slope, x=concentration of inhibitor. MPO Chlorination Assay (APF Assay)

The target in test [2] is T1, myeloperoxidase. Nature of the test: MPO Chlorination Assay (APF Assay). Particulars: potency range class. It counts as biochemical. The procedure: as §1
MPO chlorination activity was measured in 100 mM KPi (pH 7.4) by utilizing the non-fluorescent reagent Aminophenyl fluorescein (APF, Invitrogen Cat. #A36003). APF is cleaved by (—OCl) to yield the fluorescent compound fluorescein. Reactions were carried out in 50 μL total volume by adding a 25 μL mixture of 200 pM myeloperoxidase and 120 mM NaCl to 100 nL inhibitor in 100% DMSO in a 384 well, non-binding surface clear bottom plate (Corning #3655). Enzyme, inhibitor, and chloride were preincubated for ten minutes at rt.
After the ten minute preincubation, 25 μL of an APF mixture containing […], 120 mM NaCl and 10 μM H2O2 was added to the plate using the internal dispensing system of a Hammatsu FDSS 6000. Kinetic determinations were carried out immediately on the FDSS 6000 (3 minute kinetic read, 1 read every second, ex: 485 nm, em: 535 nm). IC50 values for inhibitors were calculated by taking the slope of the linear portion of the kinetic measurement (20 seconds to ˜80-120 secs). […]
[formula] where A=minimal Y value (activity level of inhibited sample), B=maximal Y value (activity level of uninhibited sample), C=Log IC50, D=Hill Slope, x=concentration of inhibitor.

Each structure is given as a SMILES string.

T1 sequence (P05164 49-745): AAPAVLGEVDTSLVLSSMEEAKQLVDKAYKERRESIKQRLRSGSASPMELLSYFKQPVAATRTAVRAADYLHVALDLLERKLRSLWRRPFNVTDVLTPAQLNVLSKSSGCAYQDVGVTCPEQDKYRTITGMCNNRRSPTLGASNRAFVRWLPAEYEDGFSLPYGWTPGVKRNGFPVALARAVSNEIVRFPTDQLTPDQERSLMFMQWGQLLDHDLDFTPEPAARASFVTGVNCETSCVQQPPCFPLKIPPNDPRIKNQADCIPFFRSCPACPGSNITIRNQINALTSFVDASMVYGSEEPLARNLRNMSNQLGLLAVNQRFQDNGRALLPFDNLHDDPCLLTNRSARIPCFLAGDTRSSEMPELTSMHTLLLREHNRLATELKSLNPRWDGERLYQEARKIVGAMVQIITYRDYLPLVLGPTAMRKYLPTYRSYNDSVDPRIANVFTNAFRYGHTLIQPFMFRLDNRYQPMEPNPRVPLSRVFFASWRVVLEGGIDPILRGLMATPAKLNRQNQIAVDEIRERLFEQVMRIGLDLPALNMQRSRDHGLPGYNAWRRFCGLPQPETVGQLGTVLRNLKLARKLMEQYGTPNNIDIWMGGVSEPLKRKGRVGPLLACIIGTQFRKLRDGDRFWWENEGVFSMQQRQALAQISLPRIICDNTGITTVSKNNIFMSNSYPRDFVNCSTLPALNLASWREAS

As a reminder, the IC50 is the concentration needed to halve the response being measured. Read a high IC50 as a need for much substance. `Nc1cc(C(CCNC23CCC(c4ccccc4)(CC2)[C@H](O)C3)c2cnn(Cc3cccc(O)c3)c2)c2nn[nH]c2n1` (stereo partly shown) [Example 51]: the IC50 at myeloperoxidase [1] and against myeloperoxidase [2] was 1 to 100 nM throughout.
In the case of `Nc1cc(C(CCN[C@H]2CC[C@H](c3ccccc3)CC2)c2cnn(C3CCCC3)c2)c2nn[nH]c2n1` (stereo partly drawn) [Example 23, 7-[1-(1-Cyclopentyl-1H-pyrazol-4-yl)-3-{[trans-4-phenylcyclohexyl]amino}propyl]-3H-[1,2,3]triazolo[4,5-b]pyridin-5-amine], the IC50 against myeloperoxidase [1] was 1000 to 10000 nM; on myeloperoxidase [2] it was 1 to 100 nM.
Consider `Nc1cc(C(CCN[C@H]2CC[C@H](c3ccccc3)CC2)c2cnn(CC3CCC3)c2)c2nn[nH]c2n1` (stereo partly shown) [Example 21, 7-{1-[1-(Cyclobutylmethyl)-1H-pyrazol-4-yl]-3-{[(1 r,4r)-4-phenylcyclohexyl]amino}propyl}-3H-[1,2,3]triazolo[4,5-b]pyridin-5-amine], for which the IC50 on myeloperoxidase [1] and against myeloperoxidase [2] was 101 to 999 nM each time.
With `Nc1cc(C(CCCC2CCc3ccccc32)c2cnn(Cc3ccc4c(c3)CCNC4)c2)c2nn[nH]c2n1` (stereo not shown) [Example 8, 7-[4-(2,3-dihydro-1H-inden-1-yl)-1-[1-(1,2,3,4-tetrahydroisoquinolin-6-ylmethyl)-1H-pyrazol-4-yl]butyl]-3H-[1,2,3]triazolo[4,5-b]pyridin-5-amine], the figures for the IC50 against myeloperoxidase [1] and at myeloperoxidase [2] were 1000 to 10000 nM and 101 to 999 nM, respectively.
Take `Nc1cc(C(CCNC2CCC(c3ccccc3)CC2)c2cnn(Cc3ccccc3)c2)c2nn[nH]c2n1` (stereo not shown) [Example 16, 7-[1-(1-Benzyl-1H-pyrazol-4-yl)-3-[(4-phenylcyclohexyl)amino]propyl]-3H-[1,2,3]triazolo[4,5-b]pyridin-5-amine]: the half-maximal inhibitory concentration (IC50) on myeloperoxidase [1] lay within 101 to 999 nM; against myeloperoxidase [2] it was 1 to 100 nM.
`Nc1cc(C(CCCC2NCCc3ccccc32)c2cnn(Cc3ccccc3)c2)c2nn[nH]c2n1` (stereo not shown) [Example 14, 7-[1-(1-Benzyl-1H-pyrazol-4-yl)-4-(1,2,3,4-tetrahydroisoquinolin-1-yl)butyl]-3H-[1,2,3]triazolo[4,5-b]pyridin-5-amine]: the IC50 is 101 to 999 nM against myeloperoxidase [1] and 1 to 100 nM at myeloperoxidase [2].
As for `Nc1cc(C(CCN[C@H]2CC[C@H](c3ccccc3)CC2)c2cnn(CCC(F)(F)F)c2)c2nn[nH]c2n1` (stereo partly drawn) [Example 30, 7-(3-{[trans-4-Phenylcyclohexyl]amino}-1-[1-(3,3,3-trifluoropropyl)-1H-pyrazol-4-yl]propyl)-3H-[1,2,3]triazolo[4,5-b]pyridin-5-amine], the IC50 lay in the range of 101 to 999 nM against myeloperoxidase [1] and 1 to 100 nM at myeloperoxidase [2].
For `Nc1cc(C(CCN[C@H]2CC[C@H](c3ccccc3)CC2)c2cnn(C3CCC3)c2)c2nn[nH]c2n1` (stereo partly shown) [Example 20, 7-[1-(1-Cyclobutyl-1H-pyrazol-4-yl)-3-{[(1r,4r)-4-phenylcyclohexyl]amino}propyl]-3H-[1,2,3]triazolo[4,5-b]pyridin-5-amine], the IC50 is 101 to 999 nM against myeloperoxidase [1] and 1 to 100 nM against myeloperoxidase [2].
Turning to `Nc1cc(C(CCCc2cccc3ccccc23)c2cnn(Cc3ccc4c(c3)CCNC4)c2)c2nn[nH]c2n1` (stereo not shown) [Example 9, 7-[4-(Naphthalen-1-yl)-1-[1-(1,2,3,4-tetrahydroisoquinolin-6-ylmethyl)-1H-pyrazol-4-yl]butyl]-3H-[1,2,3]triazolo[4,5-b]pyridin-5-amine], the concentration for half-maximal inhibition (IC50) at myeloperoxidase [1] was 1000 to 10000 nM; against myeloperoxidase [2], 1 to 100 nM.
Taken in the same sequence, the figures for `Nc1cc(C(CCN[C@H]2CC[C@H](c3ccccc3)CC2)c2cnn(C3CC3)c2)c2nn[nH]c2n1` (stereo partly drawn) [Example 32, 7-[1-(1-Cyclopropyl-1H-pyrazol-4-yl)-3-{[trans-4-phenylcyclohexyl]amino}propyl]-3H-[1,2,3]triazolo[4,5-b]pyridin-5-amine] were 1000 to 10000 nM and 101 to 999 nM.
Consider `Nc1cc(C(CCO)c2cnn(Cc3cccc(OC4CCC(N)C4)c3)c2)c2nn[nH]c2n1` (stereo not shown) [Example 55], for which the IC50 on myeloperoxidase [1] and against myeloperoxidase [2] was 101 to 999 nM throughout.
For the molecule `Nc1cc(C(CCOCc2ccccc2)c2cnn(Cc3ccc4c(c3)CCNC4)c2)c2nn[nH]c2n1` (stereo not shown) [Example 4, 7-(3-(benzyloxy)-1-(1-((1,2,3,4-tetrahydroisoquinolin-6-yl)methyl)-1H-pyrazol-4-yl)propyl)-3H-[1,2,3]triazolo[4,5-b]pyridin-5-amine], the IC50 against myeloperoxidase [1] lay within 1000 to 10000 nM; at myeloperoxidase [2], 101 to 999 nM.
Consider `Nc1cc(C(CCCc2ccccc2)c2cnn(Cc3ccc4c(c3)CCNC4)c2)c2nn[nH]c2n1` (stereo not shown) [Example 1, 7-(4-phenyl-1-(1-((1,2,3,4-tetrahydroisoquinolin-6-yl)methyl)-1H-pyrazol-4-yl)butyl)-3H-[1,2,3]triazolo[4,5-b]pyridin-5-amine], for which the concentration for half-maximal inhibition (IC50) is 1000 to 10000 nM against myeloperoxidase [1] and 1 to 100 nM against myeloperoxidase [2].
Take `Nc1cc(C(CCNC2CCc3ccccc32)c2cnn(Cc3ccccc3)c2)c2nn[nH]c2n1` (stereo not shown) [Example 17, 7-[1-(1-Benzyl-1H-pyrazol-4-yl)-3-[(2,3-dihydro-1H-inden-1-yl)amino]propyl]-3H-[1,2,3]triazolo[4,5-b]pyridin-5-amine]: the values for the IC50 against myeloperoxidase [1] and on myeloperoxidase [2] were 101 to 999 nM and 1 to 100 nM, respectively.
As for `Nc1cc(C(CCCC2CCCCC2)c2cnn(Cc3ccc4c(c3)CCNC4)c2)c2nn[nH]c2n1` (stereo not shown) [Example 6, 7-{4-cyclohexyl-1-[1-(1,2,3,4-tetrahydroisoquinolin-6-ylmethyl)-1H-pyrazol-4-yl]butyl}-3H-[1,2,3]triazolo[4,5-b]pyridin-5-amine], the IC50 against myeloperoxidase [1] is 101 to 999 nM; on myeloperoxidase [2], 1 to 100 nM.
With `Nc1cc(C(CCCc2ccc3ccccc3c2)c2cnn(Cc3ccc4c(c3)CCNC4)c2)c2nn[nH]c2n1` (stereo not shown) [Example 7, 7-[4-(naphthalen-2-yl)-1-[1-(1,2,3,4-tetrahydroisoquinolin-6-ylmethyl)-1H-pyrazol-4-yl]butyl]-3H-[1,2,3]triazolo[4,5-b]pyridin-5-amine], the half-maximal inhibitory concentration (IC50) was 101 to 999 nM against myeloperoxidase [1] and 1 to 100 nM against myeloperoxidase [2].
Consider `Nc1cc(C(CCCc2ccccc2)c2cnn(Cc3cccc(C4CCNCC4)c3)c2)c2nn[nH]c2n1` (stereo not shown) [Example 13, 7-[4-Phenyl-1-(1-{[3-(piperidin-4-yl)phenyl]methyl}-1H-pyrazol-4-yl)butyl]-3H-[1,2,3]triazolo[4,5-b]pyridin-5-amine], for which the 50% inhibitory concentration (IC50) on myeloperoxidase [1] lay within 101 to 999 nM; against myeloperoxidase [2] it was 1 to 100 nM.
Taken in the same sequence, the figures for `Cn1cc(C(CCNCc2ccccc2)c2cc(N)nc3[nH]nnc23)cn1` (stereo not shown) [Example 15, 7-[3-(Benzylamino)-1-(1-methyl-1H-pyrazol-4-yl)propyl]-3H-[1,2,3]triazolo[4,5-b]pyridin-5-amine] were 101 to 999 nM and 1000 to 10000 nM.
For `Nc1cc(C(CCNCc2ccccc2)c2cnn(Cc3cccc(O)c3)c2)c2nn[nH]c2n1` (stereo not shown) [Example 46] the same measures were 101 to 999 nM and 101 to 999 nM.
For `Nc1cc(C(CCNCc2cccc(O)c2)c2cnn(Cc3cccc(O)c3)c2)c2nn[nH]c2n1` (stereo not shown) [Example 49] the same measures were 1000 to 10000 nM and 101 to 999 nM.
With `CCC(c1cnn(Cc2cccc(O)c2)c1)c1cc(N)nc2[nH]nnc12` (stereo not shown) [Example 47], the 50% inhibitory concentration (IC50) on myeloperoxidase [1] and against myeloperoxidase [2] was 101 to 999 nM throughout.
As for `Nc1cc(C(CCN[C@H]2CC[C@H](c3ccccc3)CC2)c2cnn(Cc3ccc(Cl)cc3)c2)c2nn[nH]c2n1` (stereo partly drawn) [Example 19, 7-(1-{1-[(4-Chlorophenyl)methyl]-1H-pyrazol-4-yl}-3-{[trans-4-phenylcyclohexyl]amino}propyl)-3H-[1,2,3]triazolo[4,5-b]pyridin-5-amine], the IC50 on myeloperoxidase [1] was 101 to 999 nM; on myeloperoxidase [2], 1 to 100 nM.
On to `Nc1cc(C(CCN[C@H]2CC[C@H](c3ccccc3)CC2)c2cnn(Cc3ccccc3)c2)c2nn[nH]c2n1` (stereo partly shown) [Example 18, 7-[1-(1-Benzyl-1H-pyrazol-4-yl)-3-{[(1r,4r)-4-phenylcyclohexyl]-amino}propyl]-3H-[1,2,3]triazolo 4,5-b pyridin-5-amine], for which the IC50 against myeloperoxidase [1] and against myeloperoxidase [2] was 1 to 100 nM throughout.
As for `Nc1cc(C(CCN[C@H]2CC[C@H](c3ccccc3)CC2)c2cc[nH]c(=O)c2)c2nn[nH]c2n1` (stereo partly drawn) [Example 35, 4-(1-{5-Amino-3H-[1,2,3]triazolo[4,5-b]pyridin-7-yl}-3-{[trans-4-phenylcyclohexyl]amino}propyl)-1,2-dihydropyridin-2-one], the half-maximal inhibitory concentration (IC50) against myeloperoxidase [1] lay within 101 to 999 nM; against myeloperoxidase [2] it was 1 to 100 nM.
In turn, `Nc1cc(C(CCCc2ccccc2)c2cnn(Cc3cccnc3)c2)c2nn[nH]c2n1` (stereo not shown) [Example 12, 7-{4-Phenyl-1-[1-(pyridin-3-ylmethyl)-1H-pyrazol-4-yl]butyl}-3H-[1,2,3]triazolo[4,5-b]pyridin-5-amine] registered a half-inhibitory concentration (IC50) against myeloperoxidase [1] of 101 to 999 nM.
